Source: patent US8343475B2, “Small cationic antimicrobial peptides” (priority 2006, dated 2013)
≈ marks a conversion by molar mass, not a printed value. Residues, ends and D or L forms follow the SMILES beside them. No end group written: not given here.

Tests used:
[1] = system: LPS-stimulated TNFα production in THP-1 cells; test: Suppression of P. aeruginosa LPS-stimulated TNFα production (ELISA); assay type: cell-based, human; details: for ability to inhibit TNFα responses compared with indolicidin: 10 ng/ml P. aeruginosa LPS, peptides at 10, 20 and 50 μg/ml (FIG. 13)
Method: FIG. 12. Assessment of the ability of peptides to suppress P. aeruginosa LPS (10 ng/ml)-stimulated TNFα production in THP1 cells. Presented results are the mean values for 4 wells performed on 2 separate occasions. The x-axis number labeling is the amount of each peptide in μg/ml for the corresponding peptides.
FIG. 13. Suppression of inflammatory responses by peptides. Monocyte/macrophage-like adherent THP-1 cells were stimulated with 10 ng/ml P. aeruginosa LPS and the resulting TNFα response measured. Peptides were added at 10, 20 and 50 μg/ml. The observed TNF-release was measured by ELISA and related to the 100% value of the untreated (without peptide) cells.
Cytotoxicity and TNFα suppression assay. THP1 cells were cultured in RPMI 1640 medium (supplemented with 10% (v/v) FCS, 1% L-glutamine, and […] sodium pyruvate) in E-toxa-clean (Sigma-Aldrich, Oakville, Ontario, Canada)-washed, endotoxin-free bottle. THP1 cells were counted and 250 μl per well of […] were transferred into a 96 well tissue cultured treated polystyrene microtiterplate (Beckton Dickinson, Franklin Lakes, USA). In addition PMA were added (1.3 nM) and the cells were incubated for three days. After three days the medium were exchanged and Pseudomonas aeruginosa LPS and the peptides were added. The incubation time was four hours and the supernatant was frozen at −20° C. The cells were stained with Tryphan Blue for 2 minutes and washed with PBS two times. The viability of the cells was determined by counting the stained cells over the unstained. The supernatent was used to measure the TNFα production by an ELISA (eBioscience, San Diego, USA) following the manufactures protocol.
LPS from P. aeruginosa strain H103 was highly purified free of proteins and lipids using the Darveau-Hancock method. Briefly, P. aeruginosa was grown overnight in LB broth at 37° C. Cells were collected and washed and the isolated LPS pellets were extracted with a 2:1 chloroform:methanol solution to remove contaminating lipids. Purified LPS samples were quantitated using an assay for the specific sugar 2-keto-3-deoxyoctosonic acid (KDO assay) and then resuspended in endotoxin-free water (Sigma-Aldrich).
Human monocytic cells, THP-1, were obtained from American type culture collection, ATCC® (TIB-202) and were grown in suspension in RPMI-1640 media (Gibco®, Invitrogen™ Life technologies, Burlington, ON), supplemented with 10% (v/v) heat inactivated fetal bovine serum (FBS), 2 mM L-glutamine and 1 mM sodium pyruvate (all from Invitrogen Life Technologies). Cultures were maintained at 37° C. in a humidified 5% (v/v) CO2 incubator up to a maximum of six passages. THP-1 cells at a density of 1×10^6 cells/ml were treated with 0.3 μg/ml phorbol 12-myristate 13-acetate (PMA; Sigma-Aldrich Canada, Oakville ON) for 24 hours, inducing plastic-adherent cells that were further rested in complete RPMI-1640 medium for an additional 24 hours prior to stimulation with various treatments including P. aeruginosa LPS (10 ng/ml) with or without peptides for 24 hours after which supernatants were collected and TNFα assessed by ELISA.
THP-1 cells were stimulated with LPS (10 ng/ml) with or without peptide (10 or 100 μg/ml) for 4 hours as indicated in the results section. Following incubation of the cells under various treatment regimens, the tissue culture supernatants were centrifuged at 1000×g for 5 min, then at 10,000×g for 2 min to obtain cell-free samples. Supernatants were aliquoted and then stored at −20° C. prior to assay for various cytokines. TNFα secretion was detected with a capture ELISA (eBioscience and BioSource International Inc., CA, USA respectively).

[2] = system: Staphylococcus aureus ATCC25923; assay type: cell-based; details: ATCC25923
In short: (§1)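 MIC read as the concentration giving no visible growth after overnight incubation at 37° C. Peptides were diluted in 0.01% acetic acid containing 0.2% bovine serum albumin and tested in Mueller Hinton broth against 2-7×10^5 CFU/ml inoculum in polypropylene microtitre plates.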

[3] = system: wild-type Salmonella enterica ssp. typhimurium; assay type: cell-based
In short: as §1

[4] = system: clinical isolate of Staphylococcus epidermidis; assay type: cell-based; details: clinical isolate of
In short: as §1

[5] = system: lab isolate of Candida albicans; assay type: cell-based; details: lab isolate of
In short: as §1

[6] = system: Enterococcus faecalis ATCC29212; assay type: cell-based; details: ATCC29212
In short: as §1

[7] = system: Escherichia coli UB1005; assay type: cell-based; details: indolicidin substitution variants (Table 4)
In short: as §1

[8] = system: Pseudomonas aeruginosa PAO1 strain H103; assay type: cell-based; details: PAO1
In short: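 Modified broth microdilution MIC in Mueller Hinton medium, peptides diluted in 0.01% acetic acid/0.2% BSA, polypropylene plates. Inoculum 2-7×10^5 CFU/ml, overnight at 37 °C; MIC is the lowest concentration with no visible growth.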

| Molecule | ability to inhibit TNFα responses compared with indolicidin [1] | MIC S. aureus [2] [µg/mL] | MIC S. typhi [3] [µg/mL] | MIC S. epi. [4] [µg/mL] | MIC C. albicans [5] [µg/mL] | MIC E. faecalis [6] [µg/mL] | MIC E. coli [7] [µg/mL] | MIC P. aerug [8] [µg/mL] | suppression of LPS-induced TNFα ([1]; P. aeruginosa LPS 10 ng/ml (FIG. 12)) |
| --- | --- | --- | --- | --- | --- | --- | --- | --- | --- |
| CC[C@H](C)[C@H](N)C(=O)N[C@@H](CC(C)C)C(=O)N1CCC[C@H]1C(=O)N[C@@H](Cc1c[nH]c2ccccc12)C(=O)N[C@@H](CCCCN)C(=O)N[C@@H](Cc1ccccc1)C(=O)N1CCC[C@H]1C(=O)N[C@@H](Cc1c[nH]c2ccccc12)C(=O)N[C@@H](Cc1c[nH]c2ccccc12)C(=O)N1CCC[C@H]1C(=O)N[C@@H](Cc1c[nH]c2ccccc12)C(=O)N[C@@H](CCCNC(=N)N)C(=O)N[C@@H](CCCNC(=N)N)C(N)=O [HH63, ILPWKFPWWPWRR] (H-ILPWKFPWWPWRR-NH2; N-terminus assumed) | slightly better or equivalent than indolicidin | 8 (≈ 4.28 µM) | 31 (≈ 16.6 µM) | 4 (≈ 2.14 µM) | 16 (≈ 8.57 µM) | 31 (≈ 16.6 µM) | 16 (≈ 8.57 µM) | 62 (≈ 33.2 µM) |  |
| CC[C@H](C)[C@H](N)C(=O)N[C@@H](CC(C)C)C(=O)N1CCC[C@H]1C(=O)N[C@@H](Cc1c[nH]c2ccccc12)C(=O)N[C@@H](CCCCN)C(=O)N[C@@H](Cc1c[nH]c2ccccc12)C(=O)N1CCC[C@H]1C(=O)N[C@@H](Cc1c[nH]c2ccccc12)C(=O)N[C@@H](Cc1c[nH]c2ccccc12)C(=O)N[C@@H](CCCCN)C(=O)N[C@@H](Cc1c[nH]c2ccccc12)C(=O)N[C@@H](CCCNC(=N)N)C(=O)N[C@@H](CCCNC(=N)N)C(N)=O [HH117, ILPWKWPWWKWRR] (H-ILPWKWPWWKWRR-NH2; N-terminus assumed) | slightly better or equivalent than indolicidin | 8 (≈ 4.13 µM) | 31 (≈ 16 µM) | 2 (≈ 1.03 µM) | 16 (≈ 8.26 µM) | 31 (≈ 16 µM) | 8 (≈ 4.13 µM) | 16 (≈ 8.26 µM) |  |
| HH1011: peptide derived from indolicidin; sequence not in the text shown (RWRWWRWRR-NH2) | slightly better or equivalent than indolicidin |  |  |  |  |  |  |  |  |
| CC[C@H](C)[C@H](N)C(=O)N[C@@H](CC(C)C)C(=O)N[C@@H](CCCCN)C(=O)N[C@@H](Cc1c[nH]c2ccccc12)C(=O)N[C@@H](CCCCN)C(=O)N[C@@H](Cc1c[nH]c2ccccc12)C(=O)N1CCC[C@H]1C(=O)N[C@@H](Cc1c[nH]c2ccccc12)C(=O)N[C@@H](Cc1c[nH]c2ccccc12)C(=O)N1CCC[C@H]1C(=O)N[C@@H](Cc1c[nH]c2ccccc12)C(=O)N[C@@H](CCCNC(=N)N)C(=O)N[C@@H](CCCNC(=N)N)C(N)=O [HH111, ILKWKWPWWPWRR] | slightly better or equivalent than indolicidin | 8 (≈ 4.13 µM) | 31 (≈ 16 µM) | 4 (≈ 2.06 µM) | 8 (≈ 4.13 µM) | 31 (≈ 16 µM) | 8 (≈ 4.13 µM) | 16 (≈ 8.26 µM) |  |
| LL-37 [reference compound] |  |  |  |  |  |  |  |  | strongly suppressed |
| HH1010: peptide derived from indolicidin; sequence not in the text shown (ILRWKWRWWRWRR-NH2) | slightly better or equivalent than indolicidin |  |  |  |  |  |  |  |  |
| CC[C@H](C)[C@H](N)C(=O)N[C@@H](CC(C)C)C(=O)N1CCC[C@H]1C(=O)N[C@@H](Cc1c[nH]c2ccccc12)C(=O)N[C@@H](Cc1c[nH]c2ccccc12)C(=O)N[C@@H](Cc1c[nH]c2ccccc12)C(=O)N1CCC[C@H]1C(=O)N[C@@H](Cc1c[nH]c2ccccc12)C(=O)N[C@@H](Cc1c[nH]c2ccccc12)C(=O)N1CCC[C@H]1C(=O)N[C@@H](Cc1c[nH]c2ccccc12)C(=O)N[C@@H](CCCNC(=N)N)C(=O)N[C@@H](CCCNC(=N)N)C(N)=O [HH235, ILPWWWPWWPWRR] (H-ILPWWWPWWPWRR-NH2; N-terminus assumed) | slightly better or equivalent than indolicidin | 20 (≈ 10.2 µM) | >84 | 5 (≈ 2.55 µM) | 84 (≈ 42.8 µM) | 84 (≈ 42.8 µM) | >84 | >84 |  |
